Experimental data published in US20240400529A1, “COMPOSITIONS AND METHODS FOR THE PREVENTION AND/OR TREATMENT OF MITOCHONDRIAL DISEASE, INCLUDING FRIEDREICH'S ATAXIA” (Stealth BioTherapeutics Inc., priority 2019, published 2024).
Entries after “also recorded” stand apart in the source; their conditions may differ. Read-outs that look alike come from different tables or passages of the source.

Tests used:
[1] = system: frataxin deficient fibroblasts (Friedreich's ataxia patient, GM03665); assay type: cell-based
[2] = system: HepG2 human hepatocarcinoma cells; assay: Rotenone ATP Assay (Complex I by-pass); assay type: cell-based; conditions: for Complex I by-pass activity / restoring ATP production, in words: summary statements also cover the Oxygraph assay
Protocol: This assay has been adapted from Haefeli R H, Erb M, Gemperli A C, Robay D, Courdier Fruh I, et al. (2011) NQO1-Dependent Redox Cycling of Idebenone: Effects on Cellular Redox Potential and Energy Levels. PLOS ONE 6 (3): e17963. HepG2 human hepatocarcinoma cells were co-incubated with the electron transport chain Complex I toxin rotenone+/−compounds of interest and the corresponding effect on ATP synthesis was measured with a bioluminescent substrate.
In brief, HepG2 cells were plated at 25,000 cells per well in low glucose (1 gram/Liter) DMEM medium+10% fetal calf serum and incubated for 24 hours. The following day, the media was decanted and subsequently replaced with glucose free/serum free DMEM which has been supplemented with 50 micromolar rotenone and compound of interest. Serial dilutions of compound were prepared in 3× dilutions beginning at 25 micromolar. The cells were incubated for 60 minutes in a humidified tissue culture incubator. Following incubation, ATP levels were quantified via bioluminescent assay (Promega […] Glo Assay kit) and readings were captured on a standard microplate reader.
ATP bioluminescence is plotted versus the log of compound of interest and data were used to generate EC50 values. Curve fitting was performed using a sigmoidal dose response curve fit function (GraphPad Prism software).
Robustness of curve fit was assessed as a quality control measure, with an R squared value of at least 0.80 being required for a successful curve fit. Compounds of interest showing an increase in ATP bioluminescence relative to vehicle control were verified in an independent biological replicate of n=3 technical replicates per dose.
This assay is a direct measure of the ability of compounds of interest to restore ATP production under conditions of inhibition of Complex I of the mitochondrial electron transport chain. As the majority of ATP produced via the electron transport chain is thought to derive from Complex I activity, significant impairment in Complex I function has dire biological consequences. Of note, Complex I mutations are thought to drive pathophysiology in multiple mitochondrial diseases, including Leigh syndrome and Leber's Hereditary Optic Neuropathy (LHON), while diminished Complex I activity and the resultant attenuation of ATP production has been shown in neurodegenerative diseases, including Friedreich's Ataxia, Parkinson's Disease and Huntington's Disease.

[3] = system: GM03665 cells (fibroblasts from a subject with Friedreich's ataxia); assay: RSL3 Toxicity Assay (RSL3 Assay); assay type: cell-based, human; conditions: for EC50: Homo sapiens, Fibroblast
Protocol: In brief, GM03665 cells (Coriell Institute) were seeded in 96-well plates (Sarstedt) in DMEM cell culture media containing 10% Fetal Bovine serum and 1% Penicillin-Streptomycin (Pen-Strep) antibiotic mix at the amount of 2×10^4/mL (100 μL or 2×10^3 cells per well). Cells were left to rest overnight at 37° C. in a humidified atmosphere with 5% CO2 to allow attachment of the cells to the culture plate. Test compounds were prepared as DMSO stocks (10 mM) and were serially diluted in cell culture media to obtain 2× working solutions. Cell media was discarded and replaced by 50 μL of test compound solutions or cell media with vehicle for control wells. Within 15 minutes, 2× working solution (4 μM) of 1S,3R-RSL3 (CAS #1219810-16-8, Sigma-Aldrich) (diluted from 5 mM DMSO stock in cell culture media) was added. Final reaction volume was 100 μL and final DMSO concentration in reaction was kept below 0.2% (v/v) and equal in all wells. Final RSL3 concentration was 2 μM and test compound final concentrations in reaction were up to 1000 nM. After 24 hours of incubation cell viability was assessed by MTT test. MTT (Sigma-Aldrich) solution 1 mg/mL in 1×PBS (pH=7,4) was prepared 1 hour before the assay and filtered through Filtropur S 0.2 filters (Sarstedt). Cell media with test compounds was discarded and 100 μL of MTT solution was added to cells. The plates were incubated for 2 hours at +37° C. Thereafter, the MTT solution was removed and 100 μL of isopropanol was added to dissolve sediment. Absorption at 570 and 650 nm was measured using Hidex Sense microplate reader.

intact HepG2 cells = assay: Rotenone Oxygraph Assay (high-resolution respirometry); assay type: cell-based, human
Protocol: The Oxygraph-2k (O2k, OROBOROS INSTRUMENTS, Austria) was used for measurements of respiration of intact cells. The respirometry was performed in Dulbecco's Modified Eagle Medium (DMEM) high glucose without supplements. All experiments were performed at 37° C.
HepG2 cells (ATCC collection code HB-8065™) were cultured in 10 cm^2 culture dishes in DMEM high glucose medium supplemented with 10% fetal bovine serum (FBS) and 100 units/mL penicillin and 100 μg/mL streptomycin until approximately 90% confluence was reached. Immediately prior to performing the respirometric assay, the cells were washed with media without FBS, trypsinized and resuspended in DMEM high glucose without FBS.
The final concentration of intact cells in the O2k-chamber was 0.5.10^6/mL. After stabilization of respiration, the Complex I inhibitor, rotenone, at 1 μM final concentration was added to inhibit electron flux via Complex I. Then, compound to be tested was added at 10 μM final concentration, and the change in respiration rate of intact cells was monitored.

Nrf-2 responsive genes = assay: Nrf-2 Activation Assay (Nrf-2 Assay); assay type: cell-based, human; conditions: 24 hours; for activation of Nrf-2 responsive genes / pathway, in words: FIG. 7, 1 μM
Protocol: This assay was developed internally and was designed to determine if the novel test compounds disclosed herein active Nrf-2 and thereby promote resolution of inflammation by the mechanism believed to be responsible for the activity of omaveloxolone.
Briefly, GM03665 Eriedreich Ataxia patient fibroblasts were grown in 12 Well Plates (TC Cell+F) (Sarstedt, Nümbrecht Germany), at a density of 12×10^4 cells/per well in DMEM/F12 (Gibco, ThermoFisher Scientific, Waltham, MA, USA) cell media supplemented with 10% FBS and 1% Pen/Strep. Cells were left to rest overnight at 37° C. in a humidified atmosphere with 5% CO2 to allow attachment of the cells to the culture plate. Before continuing assay visual inspection of each well was done by light microscopy to detect any possible bacterial and fungal contamination. […] After incubation, cell media was removed and total RNA from the cells was isolated using E.Z.N.A.® Total RNA Kit I (Omega Bio-tek, Norcross, Georgia, USA) spin columns, and first-strand cDNA synthesis was carried out using a High Capacity cDNA Reverse Transcription Kit (Applied Biosystems™, Foster City, CA) following the manufacturer's instructions. qPCR analysis of gene expression was performed by mixing SYBR® Green Master Mix (Applied Biosystems™) with synthesized cDNA and forward and reverse primers. […] (60 cycles), and 95° C. for 60 seconds, followed by melt curve analysis at 72-95° C., 0.3° C./sec. The relative expression levels for each gene were calculated with the ΔΔCt method and normalized to the expression of REEP5 and SNRPD3 genes.

lipoxygenase-15 enzyme = lipoxygenase-15 enzyme (Glycine max (Soybean) (Glycine hispida), UniProt P08170); assay: Lipoxygenase-15 Assay (LO-15 Assay); assay type: biochemical; conditions: reduced forms tested

lipoxygenase-15 inhibition, in words (lipoxygenase-15 enzyme)	Compound	protection from BSO induced cell death / ferroptosis, in words [1]	Complex I by-pass activity / restoring ATP production, in words [2]	activity in the RSL3 Assay, in words [3]	Rotenone Oxygraph Assay % Increase (Table 7) (intact HepG2 cells; 1 μM rotenone, 10 μM compound)	activation of Nrf-2 responsive genes / pathway, in words (Nrf-2 responsive genes)	EC50 ([3]; 2 μM RSL3, 24 hours, MTT, mean of at least three measurements, unit from Table 7, read-out: Mean EC50, RSL3 Assay (Table 3)) [nM]	EC50 ([3]; 2 μM RSL3, 24 hours, MTT, read-out: RSL3 Assay EC50, nM (Table 7)) [nM]	Nrf-2 Assay (Table 7) (Nrf-2 responsive genes; 1 μM compound, qPCR of Nrf-2 responsive genes)	Rotenone ATP Assay EC50, nM (Table 7) ([2]; HepG2, 50 micromolar rotenone, 60 minutes)	RSL3 Assay EC50, nM (Table 7) ([3]; 2 μM RSL3, 24 hours, MTT)	Mean EC50, RSL3 Assay (Table 3) ([3]; 2 μM RSL3, 24 hours, MTT, mean of at least three measurements, unit from Table 7)	activity in the Rotenone Oxygraph Assay, in words (intact HepG2 cells)	Percent increase in ATP (Table 4, Rotenone Oxygraph Assay) (intact HepG2 cells; 1 μM rotenone, 10 μM compound, change in respiration rate of intact cells)
–	CC(C)=CCC/C(C)=C/CC/C(C)=C/CC[C@@](C)(O)CCC1=C(C)C(=O)C(C)=C(C)C1=O (stereo in doubt) [Vatiquinone, reference compound]	ability to circumvent BSO induced cell death	not	active	–	–	–	–	–	–	–	–	–	–
–	Cc1c(C)c2c(c(C)c1O)CC[C@@](C)(CCC=C(F)F)O2 [Compound 67, (R)-2-(4,4-difluorobut-3-en-1-yl)-2,5,7,8-tetramethylchroman-6-ol]	possess both activities	possess both activities	–	–	–	–	–	–	–	–	–	–	–
outside of the range of the assay	CC1=C(C)C(=O)C(CC[C@](C)(O)CC/C=C(\C)CC/C=C(\C)CCC=C2COC2)=C(C)C1=O [Compound E, 2-((R,6E,10E)-3-hydroxy-3,7,11-trimethyl-14-(oxetan-3-ylidene)tetradeca-6,10-dien-1-yl)-3,5,6-trimethylcyclohexa-2,5-diene-1,4-dione]	possess both activities; also recorded: able to prevent ferroptotic cell death; also recorded: active	possess both activities	active; also recorded: able to prevent ferroptotic cell death	37.9 +/− 10.7%	do not activate	–	–	–	–	–	–	–	–
effective inhibitors	CC1=C(C)C(=O)C(CC[C@](C)(O)CC/C=C(\C)CCC=C(F)F)=C(C)C1=O [Compound H, (R,E)-2-(11,11-difluoro-3-hydroxy-3,7-dimethylundeca-6,10-dien-1-yl)-3,5,6-trimethylcyclohexa-2,5-diene-1,4-dione]	able to prevent ferroptotic cell death; also recorded: active	–	active; also recorded: able to prevent ferroptotic cell death	54.3 +/− 13%	do not activate	–	–	–	–	–	–	–	–
effective inhibitors	CC1=C(C)C(=O)C(CC[C@@](C)(O)CC/C=C(\C)CCC=C(F)F)=C(C)C1=O [Compound L, (S,E)-2-(11,11-difluoro-3-hydroxy-3,7-dimethylundeca-6,10-dien-1-yl)-3,5,6-trimethylcyclohexa-2,5-diene-1,4-dione]	possess both activities; also recorded: able to prevent ferroptotic cell death; also recorded: active	possess both activities	active; also recorded: able to prevent ferroptotic cell death	58.6 +/− 15.5%	do not activate	–	–	–	–	–	–	–	–
–	COC1=C(OC)C(=O)C(CCCCCCCCCCO)=C(C)C1=O [Idebenone, reference compound]	very weakly active/borderline inactive	ability to restore ATP production when Complex I is inhibited	–	70.2 +/− 15%	–	–	–	–	–	–	–	–	–
–	CC1(C)CC[C@]2(NC(=O)C(C)(F)F)CC[C@]3(C)[C@H](C(=O)C=C4[C@@]5(C)C=C(C#N)C(=O)C(C)(C)[C@@H]5CC[C@]43C)[C@@H]2C1 [Omaveloxolone, reference compound]	ability to circumvent BSO induced cell death; also recorded: displayed anti-ferroptotic activity	not	completely inactive	Inactive	positive and does	–	–	–	Inactive	Inactive	Inactive	inactive	Inactive

Compound	lipoxygenase-15 inhibition, in words (lipoxygenase-15 enzyme)	protection from BSO induced cell death / ferroptosis, in words [1]	Complex I by-pass activity / restoring ATP production, in words [2]	activity in the RSL3 Assay, in words [3]	Rotenone Oxygraph Assay % Increase (Table 7) (intact HepG2 cells; 1 μM rotenone, 10 μM compound)	activation of Nrf-2 responsive genes / pathway, in words (Nrf-2 responsive genes)	EC50 ([3]; 2 μM RSL3, 24 hours, MTT, mean of at least three measurements, unit from Table 7, read-out: Mean EC50, RSL3 Assay (Table 3)) [nM]	EC50 ([3]; 2 μM RSL3, 24 hours, MTT, read-out: RSL3 Assay EC50, nM (Table 7)) [nM]	Nrf-2 Assay (Table 7) (Nrf-2 responsive genes; 1 μM compound, qPCR of Nrf-2 responsive genes)	Rotenone ATP Assay EC50, nM (Table 7) ([2]; HepG2, 50 micromolar rotenone, 60 minutes)	RSL3 Assay EC50, nM (Table 7) ([3]; 2 μM RSL3, 24 hours, MTT)	Mean EC50, RSL3 Assay (Table 3) ([3]; 2 μM RSL3, 24 hours, MTT, mean of at least three measurements, unit from Table 7)	activity in the Rotenone Oxygraph Assay, in words (intact HepG2 cells)	Percent increase in ATP (Table 4, Rotenone Oxygraph Assay) (intact HepG2 cells; 1 μM rotenone, 10 μM compound, change in respiration rate of intact cells)
CC1=C(C)C(=O)C(CC[C@@](C)(O)COCCC[Si](C)(C)C)=C(C)C1=O [Compound M, (R)-2-(3-hydroxy-3-methyl-4-(3-(trimethylsilyl)propoxy)butyl)-3,5,6-trimethylcyclohexa-2,5-diene-1,4-dione]	best result; also recorded: effective inhibitors	able to prevent ferroptotic cell death; also recorded: active	active	active; also recorded: able to prevent ferroptotic cell death	56.6 +/− 11.3%	do not activate	41.2	41.2	Inactive	–	–	–	–	–
